Experimental data: PubChem BioAssay (NCI)
“And” between values parts separate entries of the source, which are not always exact repeats. Equal values may be shown once.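 Growth conditions: 96-well plates. Treatment: test compound, 48 hours, 5 concentrations. Analysis: linear interpolation between bracketing concentrations; unreached endpoints set to highest concentration. Abbreviation: GI50, concentration required for 50% inhibition of growth. Definition used: TGI = concentration required for complete inhibition of growth.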

How the values were obtained:
Experiment in all cases: inhibition of tumour cell growth, NCI panel, 48 h
A498 renal = tested on: A498 renal
DU-145 prostate = tested on: DU-145 prostate
EKVX NSCLC = tested on: EKVX NSCLC
LOX IMVI melanoma = tested on: LOX IMVI melanoma
MDA-MB-231 breast = tested on: MDA-MB-231 breast
NCI-H460 lung = tested on: NCI-H460 lung
NCI-H522 lung = tested on: NCI-H522 lung
SF-268 CNS = tested on: SF-268 CNS
SK-MEL-2 melanoma = tested on: SK-MEL-2 melanoma
SR leukemia = tested on: SR leukemia

SMILES: O=C(Nc1ccccc1)c1c(O)[nH]c(=S)[nH]c1=O
- GI50 (A498 renal): 65.2 µM
- TGI (A498 renal): 106 µM and > 250 µM
- TGI (DU-145 prostate): 103 µM
- GI50 (EKVX NSCLC): 120 µM
- TGI (EKVX NSCLC): 103 µM and > 250 µM
- GI50 (LOX IMVI melanoma): 54 µM
- TGI (LOX IMVI melanoma): 73.6 µM and > 250 µM
- TGI (MDA-MB-231 breast): 94 µM
- GI50 (NCI-H460 lung): 29.5 µM
- TGI (NCI-H460 lung): 101 µM and > 250 µM
- GI50 (NCI-H522 lung): 83 µM
- TGI (NCI-H522 lung): 58.3 µM and > 250 µM
- TGI (SF-268 CNS): 125 µM
- GI50 (SK-MEL-2 melanoma): 61.6 µM
- TGI (SK-MEL-2 melanoma): 101 µM and 179 µM
- TGI (SR leukemia): 53.8 µM

SMILES: COC([CH2][Hg][n]1cnc2c1c(=O)n(C)c(=O)n2C)CN1C(=O)c2ccccc2S1(=O)=O (stereo unspecified)
- GI50 (A498 renal): > 100 µM
- TGI (A498 renal): > 100 µM
- GI50 (DU-145 prostate): > 100 µM
- TGI (DU-145 prostate): > 100 µM
- GI50 (EKVX NSCLC): > 100 µM
- TGI (EKVX NSCLC): > 100 µM
- GI50 (LOX IMVI melanoma): > 100 µM
- TGI (LOX IMVI melanoma): > 100 µM
- GI50 (MDA-MB-231 breast): > 100 µM
- TGI (MDA-MB-231 breast): > 100 µM
- GI50 (NCI-H460 lung): > 100 µM
- TGI (NCI-H460 lung): > 100 µM
- GI50 (NCI-H522 lung): > 100 µM
- TGI (NCI-H522 lung): > 100 µM
- GI50 (SF-268 CNS): > 100 µM
- TGI (SF-268 CNS): > 100 µM
- GI50 (SK-MEL-2 melanoma): > 100 µM
- TGI (SK-MEL-2 melanoma): > 100 µM
- GI50 (SR leukemia): 77.2 µM
- TGI (SR leukemia): > 100 µM

SMILES: C=C(C)C(OC)C(O)CC1(C)CC(O)CC(C)(C2CCC3OC(C4(C)CCC(Br)C(C)(C)O4)CCC3(C)O2)O1 (stereo unspecified)
- GI50 (A498 renal): 16.5 µM
- TGI (A498 renal): 31.1 µM
- GI50 (DU-145 prostate): 17.3 µM
- TGI (DU-145 prostate): 32 µM
- GI50 (EKVX NSCLC): 14.1 µM
- TGI (EKVX NSCLC): 34.1 µM
- GI50 (LOX IMVI melanoma): 26.1 µM
- TGI (LOX IMVI melanoma): > 58.9 µM
- GI50 (MDA-MB-231 breast): 20.3 µM
- TGI (MDA-MB-231 breast): 43.8 µM
- GI50 (NCI-H460 lung): 17.7 µM
- TGI (NCI-H460 lung): 39.3 µM
- GI50 (NCI-H522 lung): 18.2 µM
- TGI (NCI-H522 lung): 55.8 µM
- GI50 (SF-268 CNS): 18.9 µM
- TGI (SF-268 CNS): 40.3 µM
- GI50 (SK-MEL-2 melanoma): 18.1 µM
- TGI (SK-MEL-2 melanoma): 36.5 µM
- GI50 (SR leukemia): 34.9 µM
- TGI (SR leukemia): > 100 µM

SMILES: CCOC(=O)Cn1c(C(F)(F)F)nc2nc(Cl)c(Cl)nc21
- TGI (A498 renal): > 74 µM
- TGI (DU-145 prostate): 13.9 µM
- TGI (EKVX NSCLC): 29.4 µM
- TGI (LOX IMVI melanoma): > 100 µM
- TGI (MDA-MB-231 breast): > 100 µM
- TGI (NCI-H460 lung): > 100 µM
- TGI (NCI-H522 lung): 58.2 µM
- TGI (SF-268 CNS): > 100 µM
- TGI (SK-MEL-2 melanoma): 60.2 µM
- TGI (SR leukemia): > 100 µM

SMILES: Fc1[nH]nc2ccc([C@@H]3Nc4ccc5[nH]ncc5c4[C@H]4C5CCC(C5)[C@@H]34)cc12 (stereo partly specified)
- GI50 (A498 renal): 0.536 µM
- TGI (A498 renal): 3.91 µM
- GI50 (DU-145 prostate): 3.22 µM
- TGI (DU-145 prostate): 14.9 µM
- GI50 (EKVX NSCLC): 2.39 µM
- TGI (EKVX NSCLC): 17.4 µM
- GI50 (LOX IMVI melanoma): 0.768 µM
- TGI (LOX IMVI melanoma): 14 µM
- GI50 (MDA-MB-231 breast): 1.97 µM
- TGI (MDA-MB-231 breast): 17.5 µM
- GI50 (NCI-H460 lung): 0.804 µM
- TGI (NCI-H460 lung): 7.26 µM
- GI50 (NCI-H522 lung): 0.432 µM
- TGI (NCI-H522 lung): 9.27 µM
- GI50 (SF-268 CNS): 2.59 µM
- TGI (SF-268 CNS): 19.8 µM
- GI50 (SK-MEL-2 melanoma): 0.913 µM
- TGI (SK-MEL-2 melanoma): 12.2 µM
- GI50 (SR leukemia): 0.37 µM
- TGI (SR leukemia): 3.61 µM

SMILES: Cc1ccnc2c1ccc1c(C)ccnc12
- GI50 (A498 renal): 0.327 µM
- TGI (A498 renal): 3.71 µM
- GI50 (DU-145 prostate): 0.501 µM
- TGI (DU-145 prostate): 14.2 µM
- GI50 (EKVX NSCLC): 0.389 µM
- TGI (EKVX NSCLC): 12.7 µM
- GI50 (LOX IMVI melanoma): 0.367 µM
- TGI (LOX IMVI melanoma): 4.66 µM
- GI50 (MDA-MB-231 breast): 0.673 µM
- TGI (MDA-MB-231 breast): 21.3 µM
- GI50 (NCI-H460 lung): 0.339 µM
- TGI (NCI-H460 lung): 11.3 µM
- GI50 (NCI-H522 lung): 0.608 µM
- TGI (NCI-H522 lung): 4.97 µM
- GI50 (SF-268 CNS): 0.454 µM
- TGI (SF-268 CNS): 14.6 µM
- GI50 (SK-MEL-2 melanoma): 0.504 µM
- TGI (SK-MEL-2 melanoma): 18.3 µM
- GI50 (SR leukemia): 0.382 µM
- TGI (SR leukemia): > 100 µM

SMILES: OC1CSSC1Cn1cnc2c(Nc3ccc(OCc4cccc(F)c4)c(Cl)c3)ncnc21 (stereo unspecified)
- GI50 (A498 renal): 6.17 µM
- TGI (A498 renal): 12.4 µM
- GI50 (DU-145 prostate): 1.19 µM
- TGI (DU-145 prostate): 4.95 µM
- GI50 (EKVX NSCLC): 0.603 µM
- TGI (EKVX NSCLC): 2.35 µM
- GI50 (LOX IMVI melanoma): 0.121 µM
- TGI (LOX IMVI melanoma): 0.499 µM
- GI50 (MDA-MB-231 breast): 0.986 µM
- TGI (MDA-MB-231 breast): 4.53 µM
- GI50 (NCI-H460 lung): 0.171 µM
- TGI (NCI-H460 lung): 0.667 µM
- GI50 (NCI-H522 lung): 1.12 µM
- TGI (NCI-H522 lung): 4.15 µM
- GI50 (SF-268 CNS): 0.56 µM
- TGI (SF-268 CNS): 2.9 µM
- GI50 (SK-MEL-2 melanoma): 0.997 µM
- TGI (SK-MEL-2 melanoma): 3.26 µM
- GI50 (SR leukemia): 0.407 µM
- TGI (SR leukemia): 1.59 µM

SMILES: CN(C)c1ccc(/C=C\C2=[N+](C)c3ccccc3C2(C)C)cc1
- GI50 (A498 renal): 4.38 µM
- TGI (A498 renal): 28.2 µM
- GI50 (DU-145 prostate): 0.473 µM
- TGI (DU-145 prostate): 27 µM
- GI50 (EKVX NSCLC): 1.29 µM
- TGI (EKVX NSCLC): > 100 µM
- GI50 (LOX IMVI melanoma): 0.356 µM
- TGI (LOX IMVI melanoma): 14.6 µM
- GI50 (MDA-MB-231 breast): 2.12 µM
- TGI (MDA-MB-231 breast): 18.8 µM
- GI50 (NCI-H460 lung): 0.466 µM
- TGI (NCI-H460 lung): 7.16 µM
- GI50 (NCI-H522 lung): 0.703 µM
- TGI (NCI-H522 lung): > 67.4 µM
- GI50 (SF-268 CNS): 0.654 µM
- TGI (SF-268 CNS): 34 µM
- GI50 (SK-MEL-2 melanoma): 1.31 µM
- TGI (SK-MEL-2 melanoma): 43.2 µM
- GI50 (SR leukemia): 28.5 µM
- TGI (SR leukemia): > 100 µM

SMILES: O=C(Nc1ccc(-n2ccc3c(NC(=O)c4ccccc4)nccc32)cc1)c1ccc(Cl)c(C(F)(F)F)c1
- GI50 (A498 renal): 6.1 µM
- TGI (A498 renal): 33.1 µM
- GI50 (DU-145 prostate): 2.12 µM
- TGI (DU-145 prostate): 10.7 µM
- GI50 (EKVX NSCLC): 9.59 µM
- TGI (EKVX NSCLC): > 50 µM
- GI50 (LOX IMVI melanoma): 0.112 µM
- TGI (LOX IMVI melanoma): 3.29 µM
- GI50 (MDA-MB-231 breast): 5.09 µM
- TGI (MDA-MB-231 breast): 15 µM
- GI50 (NCI-H460 lung): 0.0442 µM
- TGI (NCI-H460 lung): 1.2 µM
- GI50 (NCI-H522 lung): 0.811 µM
- TGI (NCI-H522 lung): 9.59 µM
- GI50 (SF-268 CNS): 1.08 µM
- TGI (SF-268 CNS): 11.9 µM
- GI50 (SK-MEL-2 melanoma): 6.16 µM
- TGI (SK-MEL-2 melanoma): 31.6 µM
- GI50 (SR leukemia): 0.0545 µM
- TGI (SR leukemia): > 12.7 µM
